Experimental data reported in PubChem BioAssay AID1963442 (Molecular Pharmacology Branch, DTP, NCI, 2024).

Test system: MPNST complex spheroid with HUVEC/MSC, growth, % test/control
Assay: Anticancer human tumor MPNST cell line growth inhibition [Asc];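 further: compounds left on spheroids for seven days before reading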
Details: for IC50: curve of first compound; for viability, T/C: stronger effect = lower value
Experimental: Multicellular complex tumor spheroid response to apoptosis pathway targeting inhibitors Alrizomadlin, Pelcitoclax, and Dasminapant in combination with a variety of drugs and investigational agents in selected tumor cell lines
The MDM2 inhibitor alrizomadlin, the Bcl-2/Bcl-xL inhibitor pelcitoclax, and the IAPs inhibitor dasminapant were evaluated both individually and in combination with standard of care and investigational anticancer small molecules within a complex spheroid model of solid tumors. . Complex spheroids include a stromal component modeled by human endothelial cells (HUVEC) and fibroblasts modeled by human mesenchymal stem cells (MSCs). The concentration ranges selected for each drug and investigational agent were based upon clinically achievable concentrations if the clinical Cmax of the agent was known.
Compounds. The drugs and investigational agents: alrizomadlin (APG-115; NSC831270), pelcitoclax (APG-1252; NSC835773), dasminapant (APG-1387;NSC834197), TAK-243 (NSC785004), copanlisib (NSC809693), olaparib (NSC753686), talazoparib (NSC767125), cobimetinib (NSC 768068), eltanexor (KPT-8602, NSC 794443), abemaciclib (NSC 768073), sotorasib (NSC818433), adagrasib (NSC 831453), MRTX-1133 (NSC 836407), Iadademestat (ORY1001, NSC 806812), and RMC-4630 (NSC839698), were obtained from the NCI Developmental Therapeutics Program Chemical Repository. The FDA-approved anticancer drug set is available from the Developmental Therapeutics Program at https://dtp.cancer.gov/organization/dscb/obtaining/available plates.htm. […] The stock solutions were prepared in dimethyl sulfoxide (DMSO, Sigma-Aldrich, St. Louis, MO, cat. D2650) at 800-fold the tested concentration and stored at -70 degrees C prior to their use. All drugs and investigational agents were tested over a range starting from a high concentration at or near the clinical Cmax and decreasing in half-log increments. If the clinical Cmax for an agent had not been determined, the highest concentration tested was 10 microM.
The patient-derived cancer (PDC) cell lines include five colon adenocarcinomas: 186277-243-T-J2-PDC, 616215-338-R-J1-PDC, 439559-082-T-J2-PDC, 463943-066-T-J2-PDC, and 519858-162-T-J1-PDC; three pancreatic carcinomas: 323965-272-R-J2-PDC, 521955-158-R6-J3-PDC, and 521955-158-R2-J5-PDC; two uterine sarcomas: 327498-152-R-J2-PDC and 993429-296-R-J1-PDC; two rhabdomyosarcomas: 755483-174-R-J1-PDC and 772245-204-R-J1-PDC; two soft tissue sarcomas: 126254-015-R-J1-PDC and 494315-158-R-J1-PDC; two malignant fibrous histiocytomas: 317291-083-R-J1-PDC and 596521-263-R-J1-PDC; two breast carcinomas: 171881-019-R-J1-PDC and 885512-296-R-J2-PDC; and one ovarian carcinoma: 6556581-035-R-J-PDC were obtained from the NCI PDMR, (https://pdmr.cancer.gov). The established cell lines HSSY-2 synovial sarcoma (RRID:CVCL 8719), SYO-1 synovial sarcoma (RRID:CVCL_7146), MPNST malignant peripheral neural sheath tumor were obtained from the Sloan Kettering Institute. The following established cell lines were purchased from the American Type Culture Collection (ATCC, Manassas, VA), Sor the received from the NCI repository:, PANC-1 pancreatic carcinoma (CRL-1469, RRID:CVCL_0480), OVCAR-5 ovarian carcinoma (RRID:CVCL_1628), OVCAR-8 ovarian carcinoma (RRID:CVCL_1629), , MCF-7 breast carcinoma (CRL-12584, RRID:CVCL_0031), MDA-MB-231 breast carcinoma (CRL-12532, RRID:CVCL_0062), NCI-H1876 small cell lung carcinoma (CRL-5902, RRID:CVCL_1503), NCI-H510A small cell lung carcinoma (HTB-184, RRID:CVCL_1565), NCI-H1417 (CRL-5869, RRID:CVCL_1469), and NCI-H196 small cell lung carcinoma (CRL-5823, RRID:CVCL_1509). Dr. Peter Houghton (Greehey Children's Cancer Research Institute, University of Texas Health Science Center, San Antonio, TX) provided Rh-18 rhabdomyosarcoma (RRID:CVCL_1659). Pooled donor human umbilical vein endothelial cells (HUVEC, Lonza, cat. CC-2519) and human mesenchymal stem cells (hMSC, Lonza, cat. PT-2501) were purchased from Lonza (Walkersville, MD).
Cell Culture. […]

Compound: CNC(C)C(=O)NC1CN(S(=O)(=O)c2cccc(S(=O)(=O)N3CCC4CCC(C(=O)NC(c5ccccc5)c5ccccc5)N4C(=O)C(NC(=O)C(C)NC)C3)c2)CCC2CCC(C(=O)NC(c3ccccc3)c3ccccc3)N2C1=O (stereo not given) + Cc1c(S(C)(=O)=O)c(-c2cc(F)cc(N3CCN(c4ccc(NS(=O)(=O)c5ccc(NC(CCN6CCC(C(=O)OCCCP(=O)(O)O)CC6)CSc6ccccc6)c(S(=O)(=O)C(F)(F)F)c5)cc4)CC3)c2)c(-c2ccc(Cl)cc2)n1C(C)C
- IC50 (second compound 0.1 µM): > 1000 nM
- IC50 (second compound 0.316 µM): > 1000 nM
- IC50 (second compound 1 µM): > 1000 nM
- IC50 (second compound 3.16 µM): > 1000 nM
- IC50 (second compound 10 µM): > 1000 nM
- viability, T/C (second compound 0.1 µM, first compound 0.00316 µM): 121%
- viability, T/C (second compound 0.1 µM, first compound 0.01 µM): 143%
- viability, T/C (second compound 0.1 µM, first compound 0.0316 µM): 162%
- viability, T/C (second compound 0.1 µM, first compound 0.1 µM): 165%
- viability, T/C (second compound 0.1 µM, first compound 0.316 µM): 126%
- viability, T/C (second compound 0.1 µM, first compound 1 µM): 108%
- viability, T/C (second compound 0.316 µM, first compound 0.00316 µM): 139%
- viability, T/C (second compound 0.316 µM, first compound 0.01 µM): 150%
- viability, T/C (second compound 0.316 µM, first compound 0.0316 µM): 127%
- viability, T/C (second compound 0.316 µM, first compound 0.1 µM): 149%
- viability, T/C (second compound 0.316 µM, first compound 0.316 µM): 121%
- viability, T/C (second compound 0.316 µM, first compound 1 µM): 135%
- viability, T/C (second compound 1 µM, first compound 0.00316 µM): 145%
- viability, T/C (second compound 1 µM, first compound 0.01 µM): 150%
- viability, T/C (second compound 1 µM, first compound 0.0316 µM): 152%
- viability, T/C (second compound 1 µM, first compound 0.1 µM): 147%
- viability, T/C (second compound 1 µM, first compound 0.316 µM): 194%
- viability, T/C (second compound 1 µM, first compound 1 µM): 160%
- viability, T/C (second compound 3.16 µM, first compound 0.00316 µM): 132%
- viability, T/C (second compound 3.16 µM, first compound 0.01 µM): 185%
- viability, T/C (second compound 3.16 µM, first compound 0.0316 µM): 171%
- viability, T/C (second compound 3.16 µM, first compound 0.1 µM): 141%
- viability, T/C (second compound 3.16 µM, first compound 0.316 µM): 151%
- viability, T/C (second compound 3.16 µM, first compound 1 µM): 159%
- viability, T/C (second compound 10 µM, first compound 0.00316 µM): 143%
- viability, T/C (second compound 10 µM, first compound 0.01 µM): 200%
- viability, T/C (second compound 10 µM, first compound 0.0316 µM): 216%
- viability, T/C (second compound 10 µM, first compound 0.1 µM): 159%
- viability, T/C (second compound 10 µM, first compound 0.316 µM): 185%
- viability, T/C (second compound 10 µM, first compound 1 µM): 179%
